# Assay results as given in PMC7031696 (Cell chemical biology, 2019).
# Read-outs that look alike come from different tables or passages of the source.
# How the values were obtained:
# [1] = system: Plasmodium falciparum 3D7-A10 parasites; test: Stage specificity assay (8-h exposure of synchronized stages, IC50^8h); assay type: cell-based; conditions: for IC50: Plasmodium falciparum
# [2] = system: 3D7-MR4 trophozoite parasite-infected RBCs; conditions: 10 × IC50^72h; ref Allman et al., 2016; cited from earlier work
# [3] = system: 3D7-MR4 trophozoite parasite-infected RBCs; test: Metabolomic profiling (hydrophilic metabolite changes, UHPLC-MS); assay type: cell-based, Plasmodium falciparum
# [4] = system: asynchronous 3D7-A10 parasite cultures; test: Standard 72-h exposure asexual blood stage susceptibility assay (IC50^72h); assay type: cell-based, Plasmodium falciparum; conditions: Plasmodium falciparum, 3D7, 72 h, read-out: Overall (72hr assay) Mean IC50 (IC50^72h)
smiles,measurement,setting,value
CCN(CC)CCn1c(=N)n(CC(O)c2ccc(Cl)c(Cl)c2)c2ccccc21.Cl (stereo not shown) [MMV000248],Ratio lowest IC50 8hr/IC50 72hr,[1]; 3D7-A10,3.7
same,IC50,"[1]; 3D7, read-out: Early trophozoites Mean IC50 (IC50^8h), 8-h exposure 16–24 hr, 3D7-A10, survival at 60 h",0.411 µM
same,IC50,"[1]; 3D7, read-out: Late rings Mean IC50 (IC50^8h), 8-h exposure 8–16 hr, 3D7-A10, survival at 60 h",6.74 µM
same,IC50,"[1]; 3D7, read-out: Late trophozoites Mean IC50 (IC50^8h), 8-h exposure 24–32 hr, 3D7-A10, survival at 60 h",0.376 µM
same,IC50,"[1]; 3D7, read-out: Schizonts Mean IC50 (IC50^8h), 8-h exposure 32–40 hr, 3D7-A10, survival at 60 h",0.754 µM
same,Stage of peak activity (Figure 6),[1]; period when the parasite was most susceptible (lowest IC50^8h),trophozoites
same,Peak Activity (Table S1),[1]; stage(s) with the lowest IC50^8h,Trophs
same,peptide levels (hemoglobin catabolism signature),[2],decreased peptide levels
same,Log2(fold changes) 3-phosphoglycerate,"[3]; metabolite 3-phosphoglycerate, log2 fold change",0.5325
same,Log2(fold changes) 4-Pyridoxic acid,"[3]; metabolite 4-Pyridoxic acid, log2 fold change",-0.4298
same,Log2(fold changes) 4-aminobutyrate,"[3]; metabolite 4-aminobutyrate, log2 fold change",0.1717
same,Log2(fold changes) 4-phosphopantetheine,"[3]; metabolite 4-phosphopantetheine, log2 fold change",0.0000
same,Log2(fold changes) 4-phosphopantothenate,"[3]; metabolite 4-phosphopantothenate, log2 fold change",-0.4691
same,Log2(fold changes) 5-aminopentanoic acid,"[3]; metabolite 5-aminopentanoic acid, log2 fold change",0.0000
same,Log2(fold changes) 5-methyl-THF,"[3]; metabolite 5-methyl-THF, log2 fold change",0.0000
same,Log2(fold changes) 5-phosphoribosyl-1-pyrophosphate,"[3]; metabolite 5-phosphoribosyl-1-pyrophosphate, log2 fold change",-1.6071
same,Log2(fold changes) 6-phospho-D-gluconate,"[3]; metabolite 6-phospho-D-gluconate, log2 fold change",-0.0745
same,Log2(fold change) HVDD,[3]; metabolite HVDD,0.0000
same,Log2(fold change) Hydroxyisocaproic acid,[3]; metabolite Hydroxyisocaproic acid,0.0000
same,Log2(fold change) IDP,[3]; metabolite IDP,0.0000
same,Log2(fold change) IMP,[3]; metabolite IMP,-0.5306
same,Log2(fold change) Inositol,[3]; metabolite Inositol,0.0000
same,Log2(fold change) Isopentyl-PP,[3]; metabolite Isopentyl-PP,0.0000
same,Log2(fold change) L-arginino-succinate,[3]; metabolite L-arginino-succinate,0.0000
same,Log2(fold change) LD,[3]; metabolite LD,-0.2580
same,Log2(fold change) Myristoyl/tetradecanoyl-CoA,[3]; metabolite Myristoyl/tetradecanoyl-CoA,0.0000
same,Log2(fold change) N-Acetyl-L-alanine,[3]; metabolite N-Acetyl-L-alanine,-0.7106
same,Log2(fold change) N-acetyl-L-ornithine,[3]; metabolite N-acetyl-L-ornithine,-2.2540
same,Log2(fold change) N-acetyl-glucosamine-1/6-phosphate,[3]; metabolite N-acetyl-glucosamine-1/6-phosphate,0.4803
same,Log2(fold change) N-acetyl-glutamate,[3]; metabolite N-acetyl-glutamate,0.5064
same,Log2(fold change) N-acetyl-glutamine,[3]; metabolite N-acetyl-glutamine,-0.2284
same,Log2(fold change) N-carbamoyl-L-aspartate,[3]; metabolite N-carbamoyl-L-aspartate,-0.8588
same,Log2(fold change) NAD+,[3]; metabolite NAD+,-0.1903
same,Log2(fold change) NADH,[3]; metabolite NADH,0.1160
same,Log2(fold change) NADP+,[3]; metabolite NADP+,-0.0428
same,Log2(fold change) NADPH,[3]; metabolite NADPH,0.7586
same,Log2(fold change) O-acetyl-L-serine,[3]; metabolite O-acetyl-L-serine,0.0000
same,Log2(fold change) Octoluse 8/1P,[3]; metabolite Octoluse 8/1P,0.0988
same,Log2(fold change) Octoluse Bisphosphate,[3]; metabolite Octoluse Bisphosphate,-0.4045
same,Log2(fold change) PD,[3]; metabolite PD,-2.8921
same,Log2(fold change) PE,[3]; metabolite PE,-2.0895
same,Log2(fold change) PEE,[3]; metabolite PEE,-1.2134
same,Log2(fold change) PEEK,[3]; metabolite PEEK,-1.2498
same,Log2(fold change) PVNF,[3]; metabolite PVNF,-4.7386
same,Log2(fold change) Pyroglutamic acid,[3]; metabolite Pyroglutamic acid,-0.2793
same,Log2(fold change) Pyrophosphate,[3]; metabolite Pyrophosphate,-1.6691
same,Log2(fold change) Ribose-5-phosphate,[3]; metabolite Ribose-5-phosphate,0.0000
same,Log2(fold change) S-adenosyl-L-homocysteine,[3]; metabolite S-adenosyl-L-homocysteine,-0.0077
same,Log2(fold change) S-adenosyl-L-methioninamine,[3]; metabolite S-adenosyl-L-methioninamine,0.0000
same,Log2(fold change) S-adenosyl-L-methionine,[3]; metabolite S-adenosyl-L-methionine,0.0000
same,Log2(fold change) S-methyl-5'-thioadenosine,[3]; metabolite S-methyl-5'-thioadenosine,0.7911
same,Log2(fold change) SD,[3]; metabolite SD,-1.1732
same,Log2(fold change) SDL,[3]; metabolite SDL,0.0000
same,Log2(fold change) SID,[3]; metabolite SID,0.0000
same,Log2(fold change) Sedoheptulose bisphosphate,[3]; metabolite Sedoheptulose bisphosphate,-0.2688
same,Log2(fold change) Thiamine pyrophosphate,[3]; metabolite Thiamine pyrophosphate,0.0000
same,Log2(fold changes) UDP-D-glucose,"[3]; metabolite UDP-D-glucose, log2 fold change",-0.0583
same,Log2(fold changes) UDP-D-glucuronate,"[3]; metabolite UDP-D-glucuronate, log2 fold change",-0.2918
same,Log2(fold changes) UDP-N-acetyl-glucosamine,"[3]; metabolite UDP-N-acetyl-glucosamine, log2 fold change",-0.1616
same,Log2(fold changes) UDP,"[3]; metabolite UDP, log2 fold change",-0.0490
same,Log2(fold changes) UMP,"[3]; metabolite UMP, log2 fold change",-0.4851
same,Log2(fold changes) UTP,"[3]; metabolite UTP, log2 fold change",-1.1444
same,Log2(fold change) hydroxyphenylpyruvate,[3]; metabolite hydroxyphenylpyruvate,0.0000
same,Log2(fold change) hydroxyproline/Aminolevulinate,[3]; metabolite hydroxyproline/Aminolevulinate,0.0000
same,Log2(fold change) hypoxanthine,[3]; metabolite hypoxanthine,-0.4020
same,Log2(fold change) indole,[3]; metabolite indole,-0.6106
same,Log2(fold change) inosine,[3]; metabolite inosine,-0.0831
same,Log2(fold change) isoleucine,[3]; metabolite isoleucine,0.0000
same,Log2(fold change) lactate,[3]; metabolite lactate,-0.0810
same,Log2(fold change) leucine,[3]; metabolite leucine,0.0000
same,Log2(fold change) lysine,[3]; metabolite lysine,0.0000
same,Log2(fold change) malate,[3]; metabolite malate,-0.9119
same,Log2(fold change) maleic acid,[3]; metabolite maleic acid,0.0000
same,Log2(fold change) methionine,[3]; metabolite methionine,0.0000
same,Log2(fold change) myo-inositol,[3]; metabolite myo-inositol,0.1446
same,Log2(fold change) nicotinamide mononucleotide,[3]; metabolite nicotinamide mononucleotide,0.0000
same,Log2(fold change) nicotinate,[3]; metabolite nicotinate,0.0498
same,Log2(fold change) ornithine,[3]; metabolite ornithine,0.1803
same,Log2(fold change) orotate,[3]; metabolite orotate,-0.8832
same,Log2(fold change) orotidine-5'-phosphate,[3]; metabolite orotidine-5'-phosphate,0.0000
same,Log2(fold change) oxaloacetate,[3]; metabolite oxaloacetate,0.0000
same,Log2(fold change) p-aminobenzoate,[3]; metabolite p-aminobenzoate,0.0000
same,Log2(fold change) p-hydroxybenzoate,[3]; metabolite p-hydroxybenzoate,0.2564
same,Log2(fold change) pantothenate,[3]; metabolite pantothenate,0.0000
same,Log2(fold change) phenylalanine,[3]; metabolite phenylalanine,0.0000
same,Log2(fold change) phenylpyruvate,[3]; metabolite phenylpyruvate,-0.8371
same,Log2(fold change) phosphoenolpyruvate,[3]; metabolite phosphoenolpyruvate,0.4091
same,Log2(fold change) prephenate,[3]; metabolite prephenate,0.0000
same,Log2(fold change) proline,[3]; metabolite proline,0.0000
same,Log2(fold change) pyridoxine,[3]; metabolite pyridoxine,0.0000
same,Log2(fold change) pyruvate,[3]; metabolite pyruvate,-0.4292
same,Log2(fold change) riboflavin,[3]; metabolite riboflavin,0.0000
same,Log2(fold change) ribose,[3]; metabolite ribose,0.0000
same,Log2(fold change) ribose-phosphate,[3]; metabolite ribose-phosphate,-0.0154
same,Log2(fold change) ribulose-5-phosphate,[3]; metabolite ribulose-5-phosphate,0.0000
same,Log2(fold change) serine,[3]; metabolite serine,0.0000
same,Log2(fold change) sn-glycerol-3-phosphate,[3]; metabolite sn-glycerol-3-phosphate,0.2907
same,Log2(fold change) succinate/Methylmalonic acid,[3]; metabolite succinate/Methylmalonic acid,-0.5437
same,Log2(fold change) succinyl-CoA/methylmalonyl-CoA,[3]; metabolite succinyl-CoA/methylmalonyl-CoA,0.0000
same,Log2(fold change) taurine,[3]; metabolite taurine,0.0000
same,Log2(fold change) thiamine,[3]; metabolite thiamine,0.0000
same,Log2(fold change) threonine/homoserine,[3]; metabolite threonine/homoserine,0.0000
same,Log2(fold change) thymidine,[3]; metabolite thymidine,-0.8046
same,Log2(fold changes) thymine,"[3]; metabolite thymine, log2 fold change",-0.3850
same,Log2(fold changes) trehalose-6-Phosphate,"[3]; metabolite trehalose-6-Phosphate, log2 fold change",0.0000
same,Log2(fold changes) tryptophan,"[3]; metabolite tryptophan, log2 fold change",0.0000
same,Log2(fold changes) tyrosine,"[3]; metabolite tyrosine, log2 fold change",0.0000
same,Log2(fold changes) uridine,"[3]; metabolite uridine, log2 fold change",-0.9561
same,IC50,[4],0.103 µM
